Results on one compound are retold here after article PMC3928151 (ACS chemical biology, 2013).

SMILES strings stand for the structures.

In this experiment the target is CaCrg1 (Candida albicans, UniProt A0A1D8PSY8). Nature of the experiment: […] methyl transfer, acid-labile volatility. It is filed as biochemical. The following applies: 0.2 mM cantharidin, 20 µM S-adenosyl-[methyl-14C]-L-methionine, 0.1 M sodium phosphate pH 7.4, 30 °C, 120 min.

As for `C[C@@]12C(=O)OC(=O)[C@]1(C)[C@H]1CC[C@@H]2O1` [cantharidin], the “14C methyl transfer, acid-labile volatility (14C-methanol)” value is reported as “demonstrating that CaCrg1 is a functional MTase methylating cantharidin in vitro”.
